Key:
[1] = tested on: human induced pluripotent stem cell (iPSC)-derived brain endothelial-like cells (iBECs); experiment: In vitro monolayer iBEC permeability (Transwell leakage) versus TEER; assay type: in vitro ADME; settings: iBEC monolayers, all TEER levels
Procedure: In Vitro BBB model: Differentiation of iBECs: The varied TEERs of iBECs were achieved during initial experiments that optimized seeding densities for differentiation of the GM25256 iPSC line. iBECs were differentiated from the GM25256 cell line using protocols described by Hollmann et al.. These resulting iBECs have been previously characterized to have many BEC traits including expression of high TEER levels and GLUT1, CLDN5, VE-Cad, PECAM-1, ZO-1, and OCLN proteins. Briefly, iPSCs were grown in E8 Medium on Matrigel in 6-well plates. When colonies were large and nearly touching, but prior to confluence, iPSCs were washed once with DPBS (Thermo Fisher Scientific) and incubated with Accutase (Stem Cell Technologies) for 3 min to yield a single cell suspension. Cells were collected via centrifugation, resuspended in E8, and counted using a hemocytometer. […] To assess barrier properties, TEER was measured 24 h after subculture using an EVOM2 voltohmeter with an EndOhm cup chamber (World Precision Instruments). […] TEER was measured approximately every 24 h thereafter. […]
Leakage was further assessed after 1–14 days post-subculture by placing in the input medium, consisting of HESFM + 1% BSA, 0.1 µCi ^14C-sucrose and 1 million CPM ^99mTc-DTPA or 3 million CPM ^99mTc-albumin per Transwell. […] Then, the radioactivity was counted in a Tricarb beta counter (Perkin Elmer) to measure ^14C-sucrose levels. […]

[2] = tested on: BBB; experiment: Multiple-time regression analysis of BBB uptake (Ki, Vi) in control and LPS-treated mice; assay type: in vivo
Excerpt: (§1) where t is the time between i.v. injection and blood draw, Cp is the level of radioactivity in serum (expressed as %Inj/ml), Cpt is the level of radioactivity in serum at time t, and τ is the dummy variable for time. Exposure time corrects for the clearance of the compound of interest from blood. The Y-intercept measures Vi (in units of µl/g), which is the vascular space and initial luminal binding at t = 0. Ki and Vi values are reported with their standard errors and the number of mice included in the linear portion of the regression curve. Slopes and intercepts were compared statistically with program in Prism 10.0 (GraphPad Inc, San Diego, CA). The percent of the injected dose that entered each g of brain (%Inj/g) was calculated after washout of the vascular space using the equation: […]

[3] = tested on: BBB; experiment: Single time point (10 min) brain/serum ratio after iv co-injection in control and LPS-treated mice; settings: for brain region permeability change: 10 min after iv injection, one-way ANOVA per region; for increase in brain/serum ratio (leakiness): three dose LPS vs control
Excerpt: (§2) Treatment with LPS: Male CD-1 mice were purchased from Charles River and studied at 8–12 weeks of age. All animal studies were approved by the Institutional Animal Care and Use Committee of the Veterans Affairs Puget Sound Health Care System, an IACUC approved institution, in compliance with the Association for Assessment and Accreditation of Laboratory Animal Care International. Lipopolysaccharide (LPS) derived from Salmonella enterica subtype typhimurium (#L6511) was purchased from Sigma Chemical Company. Mice were given IP injections of approximately 0.1 ml of saline at 0, 6, or 24 h with LPS included in no injections, in only the single 0 h injection, or in all (0, 6, and 24 h) injections at a dose of 3 mg/kg LPS. Mice were studied 28 h after the 0 h injection (4 h after the last injection).
(§3) After a specified time, the abdomen was opened and arterial blood obtained from the abdominal aorta and immediately the thorax was opened, the descending thoracic aorta was clamped, both jugular veins were severed, the left ventricle of the heart was cannulated, and 20 ml of cold LR-BSA perfused in 60 s via the left ventricle of the heart in order to wash out the vascular space of the brain. After this, brains were collected and counted in a gamma counter. […] Brain/serum ratios are expressed in units of µl/g.
(§4) In some studies, mice were studied only at 10 min after the jugular injection of radioactivity. For multiple-time regression analysis, mice were sacrificed at 1, 2, 5, 10, 15, and 30 min after the jugular injection.

[4] = tested on: BBB; experiment: Percent of the injected dose that entered each g of brain (%Inj/g), 10 min; assay type: in vivo, mice; settings: for %Inj/g-brain: 10 min; for increase in %Inj/g-brain: three injections of LPS vs control
Excerpt: as §1
where cpm/g is the level of radioactivity in the brain tissue, g is the weight of the brain tissue, and cpmi is the amount of radioactivity injected intravenously.

[5] = Single time point (10 min) brain/serum ratio after iv co-injection in control and LPS-treated mice; settings: male, CD-1, mouse, in vivo
Excerpt: as §2, §3, §4

[6] = 10 min, DTPA and albumin co-injected

O=C(O)CN(CCN(CC(=O)O)CC(=O)O)CCN(CC(=O)O)CC(=O)O (99mTc complex, metal not drawn) [DTPA, Diethylenetriaminepentaacetic acid]
in vitro permeability (Pe) compared with simultaneously studied sucrose [1]: essentially identical in vitro results | Vi (vascular space and initial luminal binding) ([2]; control mice): 1.62 ± 0.29 µL/g | Vi (vascular space and initial luminal binding) ([2]; single injection of LPS): 1.43 ± 0.334 µL/g | Vi (vascular space and initial luminal binding) ([2]; three injections of LPS): 1.487 ± 1.104 µL/g | mean percent increase in permeability of 4 sessions ([3]; 3 dose injection of LPS, DTPA and sucrose co-injected): 79.2 +/- 16% | brain region permeability change ([3]; 3 injections of LPS): all regions except the olfactory bulb had a significant increase | detection of BBB disruption ([3]; 10 min, DTPA and albumin co-injected, LPSx1 and LPSx3): showed disruption at the single dose of LPS as well as at the three doses | control brain/serum ratio relative to albumin ([3]; 10 min, simultaneous injection of DTPA and albumin, control mice): about 5 fold | % change of brain/serum ratio relative to respective Control ([3]; LPSx1, Day 1): 12% | % change of brain/serum ratio relative to respective Control ([3]; LPSx1, Day 2): -0.025% | % change of brain/serum ratio relative to respective Control ([3]; LPSx1, Repeat Day 2): 29% | % change of brain/serum ratio relative to respective Control ([3]; LPSx3, Day 1): 79% | % change of brain/serum ratio relative to respective Control ([3]; LPSx3, Day 2): 57% | BBB disruption, combined data of 4 sessions ([3]; one injection of LPS): did not disrupt the BBB | brain region permeability change ([3]; single injection of LPS): No brain region had a statistically significant increase in permeability | increase in brain/serum ratio (leakiness) [3, 6]: 136% | increase in permeation, combined data of 4 sessions ([3]; three injections of LPS): 69% | %Inj/g-brain ([4]; control mice): 0.035 %Inj/g-brain | increase in %Inj/g-brain [4]: 117% | %Inj/g-brain ([4]; three injections of LPS): 0.0760 %Inj/g-brain

OC[C@H]1O[C@@](CO)(O[C@H]2O[C@H](CO)[C@@H](O)[C@H](O)[C@H]2O)[C@@H](O)[C@@H]1O [sucrose]
Vi (vascular space and initial luminal binding) ([2]; control mice): 8.43 ± 1.26 µL/g | Vi (vascular space and initial luminal binding) ([2]; single injection of LPS): 16.2 µL/g | Vi (vascular space and initial luminal binding) ([2]; three injections of LPS): 14.5 ± 4.82 µL/g | Kp at 10 min [5]: 0.00402 to 0.00518

bovine serum albumin
in vitro permeability (Pe) compared with simultaneously studied sucrose [1]: much lower penetration than sucrose at all TEER levels | Vi (vascular space and initial luminal binding) ([2]; control mice): 0.245 ± 0.0431 µL/g | Vi (vascular space and initial luminal binding) ([2]; single injection of LPS): 0.197 ± 0.0438 µL/g | Vi (vascular space and initial luminal binding) ([2]; three injections of LPS): 0.325 ± 0.0893 µL/g | increase in brain/serum ratio (leakiness) [3, 6]: 111% | %Inj/g-brain ([4]; control mice): 0.026 %Inj/g-brain | increase in %Inj/g-brain [4]: 81% | %Inj/g-brain ([4]; three injections of LPS): 0.0490 %Inj/g-brain

From paper PMC12838479 (Fluids and Barriers of the CNS, 2025)
